Test results taken from BigSolDB 2.1.

C=C(C)[C@@H]1CC[C@]2(C(=O)O)CC[C@]3(C)[C@H](CC[C@@H]4[C@@]5(C)CC[C@H](O)C(C)(C)[C@@H]5CC[C@]43C)[C@@H]12
solubility (mole fraction) (in THF, 278.2 K): 0.00975
solubility (mole fraction) (in THF, 288.2 K): 0.0136
solubility (mole fraction) (in THF, 298.2 K): 0.0206
solubility (mole fraction) (in THF, 308.2 K): 0.0276
solubility (mole fraction) (in THF, 318.2 K): 0.0388
solubility (mole fraction) (in acetone, 278.2 K): 0.000398
solubility (mole fraction) (in acetone, 288.2 K): 0.000502
solubility (mole fraction) (in acetone, 298.2 K): 0.000598
solubility (mole fraction) (in acetone, 308.2 K): 0.000829
solubility (mole fraction) (in acetone, 318.2 K): 0.00103
solubility (mole fraction) (in ethanol, 278.2 K): 0.000651
solubility (mole fraction) (in ethanol, 288.2 K): 0.000819
solubility (mole fraction) (in ethanol, 298.2 K): 0.00107
solubility (mole fraction) (in ethanol, 308.2 K): 0.00135
solubility (mole fraction) (in ethanol, 318.2 K): 0.00171
solubility (mole fraction) (in ethyl acetate, 278.2 K): 0.00045
solubility (mole fraction) (in ethyl acetate, 288.2 K): 0.000515
solubility (mole fraction) (in ethyl acetate, 298.2 K): 0.000733
solubility (mole fraction) (in ethyl acetate, 308.2 K): 0.000956
solubility (mole fraction) (in ethyl acetate, 318.2 K): 0.00124
solubility (mole fraction) (in ethyl formate, 278.2 K): 0.0002
solubility (mole fraction) (in ethyl formate, 288.2 K): 0.000272
solubility (mole fraction) (in ethyl formate, 298.2 K): 0.000428
solubility (mole fraction) (in ethyl formate, 308.2 K): 0.000548
solubility (mole fraction) (in ethyl formate, 318.2 K): 0.000786
solubility (mole fraction) (in isopropanol, 278.2 K): 0.000765
solubility (mole fraction) (in isopropanol, 288.2 K): 0.00092
solubility (mole fraction) (in isopropanol, 298.2 K): 0.0012
solubility (mole fraction) (in isopropanol, 308.2 K): 0.00149
solubility (mole fraction) (in isopropanol, 318.2 K): 0.00196
solubility (mole fraction) (in methanol, 278.2 K): 0.00019
solubility (mole fraction) (in methanol, 288.2 K): 0.000248
solubility (mole fraction) (in methanol, 298.2 K): 0.000339
solubility (mole fraction) (in methanol, 308.2 K): 0.000461
solubility (mole fraction) (in methanol, 318.2 K): 0.000734
solubility (mole fraction) (in n-butanol, 278.2 K): 0.00118
solubility (mole fraction) (in n-butanol, 288.2 K): 0.00149
solubility (mole fraction) (in n-butanol, 298.2 K): 0.00192
solubility (mole fraction) (in n-butanol, 308.2 K): 0.00234
solubility (mole fraction) (in n-butanol, 318.2 K): 0.003
solubility (mole fraction) (in n-butyl acetate, 278.2 K): 0.000824
solubility (mole fraction) (in n-butyl acetate, 288.2 K): 0.001
solubility (mole fraction) (in n-butyl acetate, 298.2 K): 0.0012
solubility (mole fraction) (in n-butyl acetate, 308.2 K): 0.00159
solubility (mole fraction) (in n-butyl acetate, 318.2 K): 0.00193
solubility (mole fraction) (in n-hexanol, 278.2 K): 0.00226
solubility (mole fraction) (in n-hexanol, 288.2 K): 0.00283
solubility (mole fraction) (in n-hexanol, 298.2 K): 0.00324
solubility (mole fraction) (in n-hexanol, 308.2 K): 0.00378
solubility (mole fraction) (in n-hexanol, 318.2 K): 0.00454
solubility (mole fraction) (in n-pentanol, 278.2 K): 0.00199
solubility (mole fraction) (in n-pentanol, 288.2 K): 0.00228
solubility (mole fraction) (in n-pentanol, 298.2 K): 0.00266
solubility (mole fraction) (in n-pentanol, 308.2 K): 0.00309
solubility (mole fraction) (in n-pentanol, 318.2 K): 0.00363
solubility (mole fraction) (in n-propanol, 278.2 K): 0.00103
solubility (mole fraction) (in n-propanol, 288.2 K): 0.00137
solubility (mole fraction) (in n-propanol, 298.2 K): 0.00178
solubility (mole fraction) (in n-propanol, 308.2 K): 0.00221
solubility (mole fraction) (in n-propanol, 318.2 K): 0.0028
solubility (mole fraction) (in sec-butanol, 278.2 K): 0.000821
solubility (mole fraction) (in sec-butanol, 288.2 K): 0.00113
solubility (mole fraction) (in sec-butanol, 298.2 K): 0.00149
solubility (mole fraction) (in sec-butanol, 308.2 K): 0.00189
solubility (mole fraction) (in sec-butanol, 318.2 K): 0.00245
